Results on five compounds are retold here after article PMC3545992, “Trisubstituted Pyrazolopyrimidines as Novel Angiogenesis Inhibitors” (PLoS ONE, 2013).

Data set [1] has as its system HUVECs. Kind of data set: Scratch assay (migration assay). The data set is classed as cell-based, human. As to the method: A: HMEC-1 cells were seeded in the same density as for the proliferation assay and treated with the respective compound at 30 µM for 72 h to test whether reduced cell numbers in the proliferation assay are due to inhibition of proliferation or to excessive cell death. No increase of detached, obviously dead or propidium iodide positive cells was detected. B and C: Confluent layers of HUVECs were scratched and the cells were allowed to migrate for 16 h in the presence or absence of 10 µM of the compounds. B: The columns indicate the area re-covered by migrating cells (n = 3, mean ± SEM, * p<0.05, One Way ANOVA, Dunnett). C: Scratches at endpoint, representative images taken out of three experiments.
HUVECs were seeded into a 24-well plate. After reaching confluency, cells were scratched using a 100 µl pipette tip. The wounded monolayers were washed twice with PBS containing Ca^2+/Mg^2+; then growth medium containing the indicated concentration of the compounds was added. After 16 h of migration, cells were washed and subsequently fixed with 4% paraformaldehyde. […] Images were taken using the TILLvisON system (TILL Photonics GmbH, Gräfelfing, Germany) and a CCD-camera connected to an Axiovert 200 microscope (Zeiss, Oberkochen, Germany). Quantitative image analysis of the cell covered area was done by Wimasis GmbH, Munich. A completely closed scratch was set as 100% migration, the area of the original open scratch was set as 0% migration.

Data set [2] concerns HMEC-1 cells. The data set can be described thus: Crystal violet proliferation assay. In kind it is cell-based, human. Conditions: HMEC-1, 72 h, read-out: IC50 endothelial cell proliferation. The procedure:
HMEC-1 cells were seeded to a density of 1,500 cells/well. After 24 h of incubation, a zero point control was stained with crystal violet. The remaining cells were left untreated as positive control or treated with 0.3-1-3-10–30 µM of the indicated compounds. After 72 h additional incubation, relative proliferation was determined by crystal violet staining and quantified as absorption at 550 nm.
HMEC-1 were seeded into 96-well-plates (1,500 cells/well). After 24 h, the cells were stimulated with the indicated compounds. At the same time point, cells in a reference plate were stained with crystal violet, serving as initial cell number. After 72 hours of stimulation, cells were fixed and stained with crystal-violet solution for 10 minutes, washed with water, and air dried. Crystal violet was eluted with dissolving buffer and absorbance was measured at 550 nm (Tecan Sunrise Absorbance reader, TECAN, Crailsheim, Germany). In a parallel series of experiments, cells seeded at the same cell density as in the proliferation assays were treated with 30 µM of the respective compound for 72 h. Afterwards, 10 µg/ml propidium iodide was added for 30 min to counterstain cells for membrane integrity. Phase contrast and fluorescence images were obtained with an inverted Nikon microscope (Ti, Nikon, Düsseldorf, Germany) equipped with a 10x objective.

Data set [3] has as its system HUVECs. Kind of data set: Cell viability assay (CellTiter-Blue) in confluent HUVECs. In kind it is cell-based, human. The note with it: 30 µM, 16 h. As to the method:
Figure 2 Cdk5 is expressed in HUVECs and HMEC-1 cells, and the compounds are not cytotoxic to endothelial cells at concentrations used in functional assays. A: Cdk5 protein expression in endothelial cells in comparison to human cortex. Cdk5 protein amount was analyzed by Western blot in samples of human cortex (HC), confluent HUVECs (HU) and HMEC-1 (HM). β-actin served as a loading control and for normalization of protein amount. Relative quantification (left panel) and one representative image (right panel) of three individual blots are shown. Note the much lower protein loading in the HC sample in the right panel. (n = 3, mean ± SEM, p>0.05, One Way ANOVA, Dunnett). B: Confluent HUVECs were treated for 16 h with 10 or 30 µM of the indicated compounds or left untreated as control. After addition of CellTiter-BlueTM Reagent, cells were incubated for 4 h and fluorescence was measured at 560 nm (n = 3, mean ± SEM, * p<0.05, One Way ANOVA, Dunnett).
HUVECs were seeded in 96-well plates. After reaching confluency, the cells were treated for 16 h with the indicated compounds or left untreated as control. After addition of CellTiter-Blue^TM Reagent (Promega Corporation, Madison, WI, USA), cells were incubated for additional 4 h and fluorescence was measured at 560 nm in a plate-reading photometer (SpectraFluor Plus; Tecan, Crailsheim, Germany).

Data set [4] deals with endothelial cells. More on the design: method as in PMID 20826806. Conditions: 10 µM; cited from earlier work.
In data set [5] the test system is endothelial cells. Further details: method as in PMID 21487803. The note with it: cited from earlier work.

Like-named read-outs stand apart in the source and are kept apart here.

Regarding `CC(C)c1n[nH]c2c(NCc3ccccc3N)nc(NC3CCCCC3N)nc12` (centres unmarked) [LGR 1430, 7-(2-Aminobenzyl)amino-5-[(2-E/Z-aminocyclohexyl)amino]-3-isopropyl-1(2)H-pyrazolo-[4,3-d]pyrimidine], the “effect on migration (in words)” value in data set [1] (30 µM, data not shown) is “no detectable effect”. Also, the IC50 in data set [2] (Homo sapiens) turned out to be 6.16 µM.
As to `CC(C)c1n[nH]c2c(NCc3ccccc3)nc(NC[C@@H](C)O)nc12` [LGR 1667, 7-Benzylamino-5(R)-[(2-hydroxypropyl)amino]-3-isopropyl-1(2)H-pyrazolo[4,3-d]pyrimidine], in data set [2] (Homo sapiens), the IC50 was 9.54 µM.
In the case of `CC(C)c1n[nH]c2c(NCc3ccccc3N)nc(NC[C@H](C)O)nc12` [LGR 1695, 7-(2-Aminobenzyl)amino-5(S)-[(2-hydroxypropyl)amino]-3-isopropyl-1(2)H–pyrazolo[4,3-d]pyrimidine], in data set [2] (Homo sapiens), the IC50 was determined as 10.2 µM. For the same compound, the “cell viability in comparison to control” value in data set [3] is “weak but significant decrease of viability”.
For the compound `CC(C)n1cnc2c(NCc3ccccc3N)nc(NC[C@@H](C)O)nc21` [LGR 1730], the “effect on endothelial cell migration (in words)” value in data set [1] (10 µM, 16 h, HUVECs) is on record as “no significant impact”. In addition, the IC50 in data set [2] is 18.2 µM; in data set [2] (Homo sapiens) it was approximately 20 µM. The “cell viability in comparison to control” value in data set [3] is given as “weak but significant decrease of viability”.
As to `CC[C@H](CO)Nc1nc(NCc2ccccc2)c2ncn(C(C)C)c2n1` [roscovitine, (R)-roscovitine], the reduction of migration in data set [4] is 20%. Also, in data set [5], the “concentration at which proliferation only started to be reduced” value is given as 30 µM.
